The record followed here is the supplement of paper PMC10307832.

Compound in the experiment “Quizartinib + AZD7762”: CC(C)(C)c1cc(NC(=O)Nc2ccc(-c3cn4c(n3)sc3cc(OCCN5CCOCC5)ccc34)cc2)no1 [Quizartinib] + NC(=O)Nc1cc(-c2cccc(F)c2)sc1C(=O)N[C@H]1CCCNC1 [AZD7762] (partner 0.2 µM)
In words: relative viability (nuclei count vs DMSO), 5 days (fraction); higher = more cells survive. In short, it runs like this:
(§1)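 Lung cancer cell lines in 1536-well plates were dosed by pin tool the day after seeding, either with one drug alone or with a fixed anchor-drug dose plus five library-drug doses (not always all listed) in √10 steps. After 5 days, cells were fixed and their nuclei stained in one step (final 0.05% Triton X-100, 1% formaldehyde, 1 ug/ml Hoechst), then counted on 4× images. Relative viability is the nuclei count in treated wells divided by that in vehicle wells. Values are medians of duplicate plates.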

Compound in the experiment “Quizartinib + Vorinostat”: CC(C)(C)c1cc(NC(=O)Nc2ccc(-c3cn4c(n3)sc3cc(OCCN5CCOCC5)ccc34)cc2)no1 [Quizartinib] + O=C(CCCCCCC(=O)Nc1ccccc1)NO [Vorinostat] (partner 1 µM)
Described as above. In a few lines: as §1

On to HOP-62, for which the relative viability with Quizartinib + AZD7762 (first compound 0.001 µM) came to 0.639; with Quizartinib + AZD7762 (first compound 0.003162 µM) it was 0.529; in the experiment with Quizartinib + AZD7762 (first compound 0.01 µM) it was 0.554; in the experiment with Quizartinib + AZD7762 (first compound 0.03162 µM), 0.688; with Quizartinib + AZD7762 (first compound 0.1 µM), 0.463; with Quizartinib + Vorinostat (first compound 0.001 µM), 0.456. Moreover, the relative viability was 0.429 with Quizartinib + Vorinostat (first compound 0.003162 µM), 0.577 with Quizartinib + Vorinostat (first compound 0.01 µM), 0.566 in the experiment with Quizartinib + Vorinostat (first compound 0.03162 µM) and 0.619 with Quizartinib + Vorinostat (first compound 0.1 µM).

For the cell line IA-LM, the relative viability with Quizartinib + Vorinostat (first compound 0.001 µM) was 0.71; with Quizartinib + Vorinostat (first compound 0.003162 µM), 0.811; with Quizartinib + Vorinostat (first compound 0.03162 µM), 0.874; in the experiment with Quizartinib + Vorinostat (first compound 0.1 µM) it was 0.955.

As for LC-2-ad, the relative viability in the experiment with Quizartinib + AZD7762 (first compound 0.001 µM) came to 0.75; with Quizartinib + AZD7762 (first compound 0.003162 µM), 0.835; with Quizartinib + AZD7762 (first compound 0.01 µM), 0.91; with Quizartinib + AZD7762 (first compound 0.03162 µM), 0.883; in the experiment with Quizartinib + AZD7762 (first compound 0.1 µM), 0.835; in the experiment with Quizartinib + Vorinostat (first compound 0.001 µM) it was 0.603. Further, the relative viability was determined as 0.688 with Quizartinib + Vorinostat (first compound 0.003162 µM), 0.733 with Quizartinib + Vorinostat (first compound 0.01 µM), 0.681 in the experiment with Quizartinib + Vorinostat (first compound 0.03162 µM) and 0.694 with Quizartinib + Vorinostat (first compound 0.1 µM).

For LCLC-97TM1, the relative viability worked out at 0.197 with Quizartinib + AZD7762 (first compound 0.001 µM); 0.334 with Quizartinib + AZD7762 (first compound 0.003162 µM); 0.325 with Quizartinib + AZD7762 (first compound 0.01 µM); 0.179 in the experiment with Quizartinib + AZD7762 (first compound 0.03162 µM); 0.361 with Quizartinib + AZD7762 (first compound 0.1 µM); 0.573 with Quizartinib + Vorinostat (first compound 0.001 µM). For the same cell line, the relative viability came out at 0.52 with Quizartinib + Vorinostat (first compound 0.003162 µM), 0.685 with Quizartinib + Vorinostat (first compound 0.01 µM), 0.677 in the experiment with Quizartinib + Vorinostat (first compound 0.03162 µM) and 0.767 with Quizartinib + Vorinostat (first compound 0.1 µM).

As for LCLC-103H, the relative viability with Quizartinib + AZD7762 (first compound 0.001 µM) stood at 0.664; with Quizartinib + AZD7762 (first compound 0.003162 µM), 0.701; in the experiment with Quizartinib + AZD7762 (first compound 0.01 µM), 0.746; in the experiment with Quizartinib + AZD7762 (first compound 0.03162 µM) it was 0.866; with Quizartinib + AZD7762 (first compound 0.1 µM), 0.829; in the experiment with Quizartinib + Vorinostat (first compound 0.001 µM), 0.743. For the same cell line, the relative viability with Quizartinib + Vorinostat (first compound 0.003162 µM) was found to be 0.735; in the experiment with Quizartinib + Vorinostat (first compound 0.01 µM) it was 0.663; in the experiment with Quizartinib + Vorinostat (first compound 0.03162 µM), 0.812; in the experiment with Quizartinib + Vorinostat (first compound 0.1 µM), 0.779.

For the cell line LK-2, the relative viability with Quizartinib + AZD7762 (first compound 0.001 µM) came to 0.456; with Quizartinib + AZD7762 (first compound 0.003162 µM) it was 0.405; with Quizartinib + AZD7762 (first compound 0.01 µM), 0.474; in the experiment with Quizartinib + AZD7762 (first compound 0.03162 µM), 0.244; in the experiment with Quizartinib + AZD7762 (first compound 0.1 µM), 0.293; with Quizartinib + Vorinostat (first compound 0.001 µM) it was 0.179. For the same cell line, the relative viability with Quizartinib + Vorinostat (first compound 0.003162 µM) turned out to be 0.185; in the experiment with Quizartinib + Vorinostat (first compound 0.01 µM), 0.306; in the experiment with Quizartinib + Vorinostat (first compound 0.03162 µM), 0.315; with Quizartinib + Vorinostat (first compound 0.1 µM), 0.294.

On to LOU-NH91, for which the relative viability in the experiment with Quizartinib + AZD7762 (first compound 0.001 µM) amounted to 0.749; in the experiment with Quizartinib + AZD7762 (first compound 0.003162 µM), 0.768; with Quizartinib + AZD7762 (first compound 0.01 µM), 0.739; in the experiment with Quizartinib + AZD7762 (first compound 0.03162 µM), 0.722; in the experiment with Quizartinib + AZD7762 (first compound 0.1 µM), 0.827; with Quizartinib + Vorinostat (first compound 0.001 µM), 0.86. The relative viability with Quizartinib + Vorinostat (first compound 0.003162 µM) stood at 1.04; with Quizartinib + Vorinostat (first compound 0.01 µM) it was 0.899; with Quizartinib + Vorinostat (first compound 0.03162 µM) it was 0.721; with Quizartinib + Vorinostat (first compound 0.1 µM), 1.12.

Turning to LU99A, the relative viability with Quizartinib + AZD7762 (first compound 0.001 µM) was determined as 0.336; with Quizartinib + AZD7762 (first compound 0.003162 µM), 0.324; in the experiment with Quizartinib + AZD7762 (first compound 0.01 µM), 0.435; with Quizartinib + AZD7762 (first compound 0.03162 µM) it was 0.479; with Quizartinib + AZD7762 (first compound 0.1 µM), 0.324; with Quizartinib + Vorinostat (first compound 0.001 µM), 0.373. Moreover, the relative viability was 0.51 with Quizartinib + Vorinostat (first compound 0.003162 µM), 0.449 with Quizartinib + Vorinostat (first compound 0.01 µM), 0.481 with Quizartinib + Vorinostat (first compound 0.03162 µM) and 0.502 with Quizartinib + Vorinostat (first compound 0.1 µM).

As for LXF-289, the relative viability in the experiment with Quizartinib + AZD7762 (first compound 0.001 µM) was 0.816; in the experiment with Quizartinib + AZD7762 (first compound 0.003162 µM), 1.08; with Quizartinib + AZD7762 (first compound 0.01 µM) it was 1.09; in the experiment with Quizartinib + AZD7762 (first compound 0.03162 µM), 1.11; with Quizartinib + AZD7762 (first compound 0.1 µM) it was 1.12; in the experiment with Quizartinib + Vorinostat (first compound 0.001 µM) it was 0.645. Besides, the relative viability was determined as 0.752 with Quizartinib + Vorinostat (first compound 0.003162 µM), 0.782 with Quizartinib + Vorinostat (first compound 0.01 µM), 0.726 with Quizartinib + Vorinostat (first compound 0.03162 µM) and 0.738 with Quizartinib + Vorinostat (first compound 0.1 µM).
